Laboratory results: ChEMBL document CHEMBL1649335, “Discovery of {1-[4-(2-{hexahydropyrrolo[3,4-c]pyrrol-2(1H)-yl}-1H-benzimidazol-1-yl)piperidin-1-yl]cyclooctyl}methanol, systemically potent novel non-peptide agonist of nociceptin/orphanin FQ receptor as analgesic for the treatment of neuropathic pain: design, synthesis, and structure-activity …” (Bioorg Med Chem, 2010)
pEC50, pIC50, pKi: −log10 of the molar value. Activity calls are given as the source filed them.

Experiments:
[1] = Inhibition of rat GABA transporter
[2] = target: Kappa-type opioid receptor (Homo sapiens, UniProt P41145)
in vitro = details: human, liver microsomes
Nociceptin receptor [3] = target: T1, Nociceptin receptor (Homo sapiens, UniProt P41146)
Nociceptin receptor [4] = target: T1, Nociceptin receptor; assay: biochemical
Rattus norvegicus [5] = assay: Antiallodynic activity against von Frey hair mechanically stimulated neuropathic pain in intrathecally dosed Sprague-Dawley rat assessed as assessed as minimum effective dose to increase of response threshold per site after 20 mins; type: functional
Rattus norvegicus [6] = assay: Antiallodynic activity against von Frey hair mechanically stimulated neuropathic pain in intrathecally dosed Sprague-Dawley rat assessed as increase of response threshold per site after 20 mins; type: functional
Rattus norvegicus [7] = assay: Antiallodynic activity against von Frey hair mechanically stimulated neuropathic pain in Sprague-Dawley rat assessed as assessed as minimum effective dose to increase of response threshold per site at 0.55 to 55 nmol/site administered intrathecally after 1 hr; type: functional, organism-based
Rattus norvegicus [8] = assay: Antiallodynic activity against von Frey hair mechanically stimulated neuropathic pain in Sprague-Dawley rat assessed as assessed as minimum effective dose to increase of response threshold per site at 0.55 to 170 nmol/site, icv after 1 hr; type: functional, organism-based
Rattus norvegicus [9] = assay: Antiallodynic activity against von Frey hair mechanically stimulated neuropathic pain in Sprague-Dawley rat assessed as increase of response threshold per site at 0.55 to 55 nmol/site administered intrathecally after 1 hr; type: functional, organism-based
Rattus norvegicus [10] = assay: Antiallodynic activity against von Frey hair mechanically stimulated neuropathic pain in icv dosed Sprague-Dawley rat assessed as decrease of response threshold in contralateral paw after 20 mins; type: functional, organism-based
Rattus norvegicus [11] = assay: Antiallodynic activity against von Frey hair mechanically stimulated neuropathic pain in icv dosed Sprague-Dawley rat assessed as decrease of response threshold in contralateral paw after 1 hr; type: functional, organism-based
Rattus norvegicus [12] = assay: Antiallodynic activity against von Frey hair mechanically stimulated neuropathic pain in Sprague-Dawley rat assessed as assessed as minimum effective dose to increase of response threshold per site at 0.55 to 170 nmol/site, icv after 20 mins; type: functional, organism-based
Rattus norvegicus [13] = assay: Antiallodynic activity against von Frey hair mechanically stimulated neuropathic pain in Sprague-Dawley rat assessed as increase of response threshold per site at 0.55 to 170 nmol/site, icv after 20 mins; type: functional, organism-based
Rattus norvegicus [14] = assay: Antiallodynic activity against von Frey hair mechanically stimulated neuropathic pain in Sprague-Dawley rat assessed as effect on allodynia in contralateral paw at 0.55 to 170 nmol/site administered intrathecally after 20 mins; type: functional, organism-based
Rattus norvegicus [15] = assay: Antiallodynic activity against von Frey hair mechanically stimulated neuropathic pain in Sprague-Dawley rat assessed as increase of response threshold per site at 0.55 to 170 nmol/site, icv after 1 hr; type: functional, organism-based
Rattus norvegicus [16] = assay: Antiallodynic activity against von Frey hair mechanically stimulated neuropathic pain in Sprague-Dawley rat assessed as effect on allodynia in contralateral paw at 0.55 to 170 nmol/site administered intrathecally after 1 hr; type: functional, organism-based
[17] = target: T2, Voltage-gated L-type calcium channel (Rattus norvegicus, UniProt P22002+Q02485+P27732); assay: Inhibition of rat L-type Ca2+ channel verapamil site
Mu-type opioid receptor = Mu-type opioid receptor (Homo sapiens, UniProt P35372)
Tyrosine 3-monooxygenase = Tyrosine 3-monooxygenase (Rattus norvegicus, UniProt P04177); assay: Inhibition of rat tyrosine hydroxylase
[18] = Inhibition of rat Na+ channel site 2
[19] = Inhibition of rat chloride channel
[20] = Inhibition of rat K+ATP channel
[21] = Inhibition of rat N-type Ca2+ channel
Rattus norvegicus [22] = assay: Antiallodynic activity against von Frey hair mechanically stimulated neuropathic pain in Sprague-Dawley rat assessed as assessed as minimum effective dose to increase of response threshold at 1 to 30 mg/kg, sc after 30 mins to 4 hrs; type: functional, organism-based
Rattus norvegicus [23] = assay: Antiallodynic activity against von Frey hair mechanically stimulated neuropathic pain in Sprague-Dawley rat assessed as effect on allodynia in contralateral paw at 1 to 30 mg/kg, sc after 30 mins to 4 hrs; type: functional, organism-based
Rattus norvegicus [24] = assay: Antiallodynic activity against von Frey hair mechanically stimulated neuropathic pain in Sprague-Dawley rat assessed as increase of response threshold at 1 to 30 mg/kg, sc after 30 mins to 4 hrs; type: functional, organism-based
[25] = Inhibition of rat 5-HT receptor
[26] = Stimulation of rat adenylate cyclase
Glutamate NMDA receptor = assay: Inhibition of rat NMDA receptor; type: protein-complex assay
[27] = Inhibition of rat choline transporter
[28] = target: T2, Voltage-gated L-type calcium channel; assay: Inhibition of rat L-type Ca2+ channel dihydropyridine site
[29] = Inhibition of rat phospholipase C

T1 sequence (P41146 whole entry): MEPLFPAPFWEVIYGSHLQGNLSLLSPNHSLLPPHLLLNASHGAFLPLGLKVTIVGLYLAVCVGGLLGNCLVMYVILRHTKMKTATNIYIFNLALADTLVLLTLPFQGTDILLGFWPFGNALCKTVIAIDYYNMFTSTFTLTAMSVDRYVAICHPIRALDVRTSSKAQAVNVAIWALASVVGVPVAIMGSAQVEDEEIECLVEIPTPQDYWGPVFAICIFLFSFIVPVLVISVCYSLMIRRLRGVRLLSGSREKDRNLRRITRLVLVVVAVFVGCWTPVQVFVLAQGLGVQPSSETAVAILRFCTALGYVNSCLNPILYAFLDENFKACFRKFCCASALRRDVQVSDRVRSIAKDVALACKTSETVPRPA
Sequence of Mu-type opioid receptor (P35372 whole entry): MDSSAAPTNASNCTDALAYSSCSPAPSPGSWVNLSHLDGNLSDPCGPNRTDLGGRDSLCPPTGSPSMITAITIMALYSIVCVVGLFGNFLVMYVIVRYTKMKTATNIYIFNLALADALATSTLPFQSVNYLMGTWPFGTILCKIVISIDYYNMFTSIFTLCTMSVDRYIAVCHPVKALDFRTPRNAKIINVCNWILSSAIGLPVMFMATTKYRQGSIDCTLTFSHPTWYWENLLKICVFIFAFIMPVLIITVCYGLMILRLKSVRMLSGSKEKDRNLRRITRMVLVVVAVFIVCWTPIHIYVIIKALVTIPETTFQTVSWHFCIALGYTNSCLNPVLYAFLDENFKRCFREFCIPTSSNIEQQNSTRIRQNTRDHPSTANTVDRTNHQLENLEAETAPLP
Sequence of Kappa-type opioid receptor (P41145 whole entry): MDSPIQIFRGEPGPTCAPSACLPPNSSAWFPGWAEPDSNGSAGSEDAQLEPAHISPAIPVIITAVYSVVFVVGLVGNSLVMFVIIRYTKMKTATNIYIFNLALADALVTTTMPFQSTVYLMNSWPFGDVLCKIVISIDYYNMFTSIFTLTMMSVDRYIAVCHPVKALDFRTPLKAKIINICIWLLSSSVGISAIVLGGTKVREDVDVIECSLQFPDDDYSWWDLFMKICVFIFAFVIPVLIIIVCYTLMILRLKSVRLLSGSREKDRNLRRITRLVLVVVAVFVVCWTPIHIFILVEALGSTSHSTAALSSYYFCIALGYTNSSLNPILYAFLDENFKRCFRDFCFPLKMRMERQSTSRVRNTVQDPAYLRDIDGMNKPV
Sequence of Tyrosine 3-monooxygenase (P04177 whole entry): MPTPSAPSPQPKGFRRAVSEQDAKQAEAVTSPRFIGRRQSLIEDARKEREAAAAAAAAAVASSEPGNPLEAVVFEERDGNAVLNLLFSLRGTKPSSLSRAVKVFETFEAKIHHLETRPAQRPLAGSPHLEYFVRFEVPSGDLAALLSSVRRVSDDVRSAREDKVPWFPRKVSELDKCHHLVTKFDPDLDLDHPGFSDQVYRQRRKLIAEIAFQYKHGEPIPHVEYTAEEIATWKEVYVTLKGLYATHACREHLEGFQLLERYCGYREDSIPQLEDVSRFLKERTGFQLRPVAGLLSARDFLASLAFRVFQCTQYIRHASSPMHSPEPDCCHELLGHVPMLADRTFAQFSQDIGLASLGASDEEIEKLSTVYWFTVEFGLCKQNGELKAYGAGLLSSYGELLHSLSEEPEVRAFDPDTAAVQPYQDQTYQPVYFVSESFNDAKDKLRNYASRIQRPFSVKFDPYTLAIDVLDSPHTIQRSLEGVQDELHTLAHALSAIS

O=C(O)C1CCCNC1 (stereo not drawn) [NIPECOTIC ACID]
pIC50 [1]: 5.14

CN1CCN(c2nc3ccccc3n2C2CCN(C3(CO)CCCCCCC3)CC2)CC1
pEC50 [2]: 7.74 | half-life at 1 µM (in vitro): 9.5 min | pEC50 (Nociceptin receptor [3]): 7.77 | pKi (Nociceptin receptor [4]): 8.37

CC(C)C[C@H](NC(=O)[C@H](CCCCN)NC(=O)[C@H](CCCNC(=N)N)NC(=O)[C@H](C)NC(=O)[C@H](CO)NC(=O)[C@H](CCCCN)NC(=O)[C@H](CCCNC(=N)N)NC(=O)[C@H](C)NC(=O)CNC(=O)[C@@H](NC(=O)[C@H](Cc1ccccc1)NC(=O)CNC(=O)CNC(=O)[C@@H](N)Cc1ccccc1)[C@@H](C)O)C(=O)N[C@@H](C)C(=O)N[C@@H](CC(N)=O)C(=O)N[C@@H](CCC(N)=O)C(=O)O [NOCICEPTIN]
MED (Rattus norvegicus [5]): 55 nmol | ED50 (Rattus norvegicus [6]): 10.3 nmol | MED (Rattus norvegicus [7]): inactive | MED (Rattus norvegicus [8]): inactive | ED50 (Rattus norvegicus [9]): inactive | Activity (Rattus norvegicus [10]): Dose-dependent effect | Activity (Rattus norvegicus [11]): Dose-dependent effect | MED (Rattus norvegicus [12]): inactive | ED50 (Rattus norvegicus [13]): inactive | Activity (Rattus norvegicus [14]): inactive | ED50 (Rattus norvegicus [15]): inactive | Activity (Rattus norvegicus [16]): inactive

COc1ccc(CCN(C)CCCC(C#N)(c2cc(OC)c(OC)c(OC)c2)C(C)C)cc1OC (stereo not drawn) [GALLOPAMIL]
IC50 [17]: 23 nM

OCC1(N2CCC(n3c(-c4ccc(Cl)cc4)nc4ccccc43)CC2)CCCCCCC1
pEC50 (Nociceptin receptor [3]): 8.04 | pEC50 (Mu-type opioid receptor): < 5.00 | pKi (Nociceptin receptor [4]): 9.82

N[C@@H](Cc1ccc(O)c(I)c1)C(=O)O [IOTYROSINE]
pIC50 (Tyrosine 3-monooxygenase): 8.85

COc1ccc(C(=O)O[C@H]2CC[C@@]3(C)[C@@H]4CC[C@H]5[C@]6(O)C[C@H](O)[C@@]7(O)[C@@H](CN8C[C@@H](C)CC[C@H]8[C@@]7(C)O)[C@]6(O)C[C@@]53O[C@]24O)cc1OC [VERATRIDINE]
pIC50 [18]: 4.97

C=C(C)[C@@H]1[C@H]2OC(=O)[C@@H]1[C@]1(O)C[C@H]3O[C@]34C(=O)O[C@H]2[C@]14C [PICROTOXININ]
pIC50 [19]: 6.41

COc1ccc(Cl)cc1C(=O)NCCc1ccc(S(=O)(=O)NC(=O)NC2CCCCC2)cc1 [GLYBURIDE]
pIC50 [20]: 8.96

OCC1(N2CCC(n3c(-c4ccc(F)c(Cl)c4)nc4ccccc43)CC2)CCCCCCC1
pEC50 (Nociceptin receptor [3]): 8.05 | pEC50 (Mu-type opioid receptor): 5.91 | pKi (Nociceptin receptor [4]): 9.14

C[C@@H](O)[C@@H]1NC(=O)[C@H](Cc2ccc(O)cc2)NC(=O)[C@@H]2C[C@@H](O)CN2C(=O)[C@H](CC(N)=O)NC(=O)[C@@H]2CSSC[C@@H]3NC(=O)[C@H](CO)NC(=O)[C@H](CO)NC(=O)CNC(=O)[C@@H]4C[C@@H](O)CN4C(=O)[C@H](CO)NC(=O)[C@H](CCCCN)NC(=O)[C@@H](N)CSSC[C@H](NC(=O)[C@H](CSSC[C@@H](C(=O)N[C@@H](Cc4ccc(O)cc4)C(N)=O)NC(=O)[C@H](CCCNC(=N)N)NC(=O)[C@H](CCCCN)NC1=O)NC(=O)[C@H](CC(N)=O)NC(=O)[C@H](Cc1ccc(O)cc1)NC(=O)[C@H](CO)NC(=O)[C@H]([C@@H](C)O)NC(=O)[C@@H]1C[C@@H](O)CN1C(=O)[C@H](CO)NC3=O)C(=O)N[C@@H](CCCNC(=N)N)C(=O)N[C@@H](CO)C(=O)N2
pIC50 [21]: 10.35

CN1CCN(c2nc3ccccc3n2C2CCN(C3(C(=O)O)CCCCCCC3)CC2)CC1
pKi (Nociceptin receptor [4]): < 6.60

CC1CN(c2nc3ccccc3n2C2CCN(C3(CO)CCCCCCC3)CC2)CCN1 (stereo not drawn)
pEC50 [2]: 6.44 | half-life at 1 µM (in vitro): 19.7 min | pEC50 (Nociceptin receptor [3]): 7.42 | pEC50 (Mu-type opioid receptor): 5.75 | pKi (Nociceptin receptor [4]): 9.02

CC1(C)CN(c2nc3ccccc3n2C2CCN(C3(CO)CCCCCCC3)CC2)CCN1
MED (Rattus norvegicus [22]): inactive | pEC50 (Nociceptin receptor [3]): 7.64 | Activity (Rattus norvegicus [23]): inactive | ED50 (Rattus norvegicus [24]): inactive | pKi (Nociceptin receptor [4]): 8.34

NCCc1c[nH]c2ccc(O)cc12 [SEROTONIN]
pIC50 [25]: 8.57

C=C[C@@]1(C)CC(=O)[C@]2(O)[C@@]3(C)[C@@H](O)CCC(C)(C)[C@@H]3[C@H](O)[C@H](OC(C)=O)[C@@]2(C)O1 [COLFORSIN]
pEC50 [26]: 5.37

O=C(O)[C@@H]1C[C@H](CP(=O)(O)O)CCN1 [SELFOTEL]
pIC50 (Glutamate NMDA receptor): 5.79

C[N+]1(C)CCO[C@@](O)(c2ccc(-c3ccc([C@@]4(O)C[N+](C)(C)CCO4)cc3)cc2)C1 [HEMICHOLINIUM DIBROMIDE]
pIC50 [27]: 8.11

CCOC(=O)C1=C(C)NC(C)=C(C(=O)OC)C1c1cccc([N+](=O)[O-])c1 (stereo not drawn) [NITRENDIPINE]
IC50 [28]: 1.3 nM

OCC1(N2CCC(n3c(-c4ccc(F)c(Cl)c4)nc4ccccc43)CC2)CCCCC1
pEC50 (Nociceptin receptor [3]): 7.28 | pKi (Nociceptin receptor [4]): 8.37

NC[C@@H]1O[C@H](O[C@H]2[C@@H](O)[C@H](O[C@@H]3[C@@H](O)[C@H](N)C[C@H](N)[C@H]3O[C@H]3O[C@H](CN)[C@@H](O)[C@H](O)[C@H]3N)O[C@@H]2CO)[C@H](N)[C@@H](O)[C@@H]1O [FRAMYCETIN]
pIC50 [29]: 8.10
